Experimental data: US12714682B2, “Calixarene compounds and uses thereof” (UNIVERSITÄT WIEN, priority 2019, dated 2026)

Experiments:
neuroblastoma cells = test: Protection from MPP+ induced oxidative stress, CellTiter-Glo viability; assay type: cell-based; settings: for protection from MPP+ induced apoptosis / damage: 0.1-1000 μM, 12 h
Procedure: Several in-vivo and in-vitro studies find that MPP+ exerts oxidative stress on cells^22. MPP+×toxicity is based on its uptake into dopaminergic neurons. MPP+ accumulate into the mitochondria, inhibiting the complex-I leading to ATP depletion, increased reactive oxygen species (ROS) production, and apoptotic cell death^23. 12 h following MPP+ treatment and SCA-744 and CAL-X incubation, cell viability was assessed using a standard ATP method, CellTiter-Glo® Luminescent Cell Viability Assay.

[1] = test system: THP-1 human monocytic cell line; test: LPS-stimulated THP-1 macrophage cytokine production (LEGENDplex); assay type: cell-based; settings: 10 ng/ml LPS; 30 and 150 μM; FIG. 3
Procedure: A specific anti-inflammatory effect or activity of a compound is proven, if the compound can decrease the production of one of IL-1B, IL-6 and TNFα in human THP1 macrophages following LPS stimulation, as determined by a standard assay: THP-1 human monocytic cell lines are treated with 100 nM of Phorbol 12-myristate 13-acetate (PMA) for 48 h to induce mature macrophage-like state. Cells are then stimulated with 100 ng/ml of LPS in the absence and presence of 500 μM of compound. After 6 hours, supernatants of treated and untreated cells are collected, and cytokine levels determined using the Human Inflammatory panel LEGENDplex Human Pro-inflammatory Chemokine Panel (Cat. No. 740118). A positive result is considered if the compound is capable of reduce or block the production of IL-1β, IL-6, and TNFα in human THP1 macrophages after LPS stimulation.
Following cells were treated with [10 ng/ml] LPS in the absence and presence 10, 100 and 500 μM of SCA-744. Cytokine levels were determined by LEGENDplex™ Human Inflammation Panel assay from BioLegend. The bar heights represent the concentration means compared to LPS alone of 3 independent experiments carried out in triplicates.
Cells were treated with 100 nM of Phorbol 12-myristate 13-acetate (PMA) for 48 h to induce mature macrophage-like state. Cells were then stimulated with 100 ng/ml of Lipopolysaccharides (LPS) in the absence and presence of 500 μM of SCA-744. After 6 hours, supernatants of treated and untreated cells were collected and the levels of three major pro-inflammatory cytokines TNF-α, IL-6 and IL-1ß were determined using the Human Inflammatory panel of LEGENDPLEX Multi-Analyte Flow assay.

[2] = Cytotoxicity, CellTiter-Glo cell viability; assay type: cell-based; settings: human, HEK 293 cells (printed as HEK 293 neuroblastoma cell lines), 72 h treatment, read-out: EC50 cytotoxicity (cell viability, ATP)
Procedure: FIG. 19.: In-vitro assessment of SCA-744 (A) and SCA-754 (B) cytotoxicity. Experiments were performed using HEK 293 […] cell lines. The effect of SCA-744 and SCA-754 on cell viability was assessed using a standard ATP, CellTiter-Glo® Luminescent Cell Viability Assay following 72 hours treatment.
In vitro assessment of cytotoxicity of SCA-744 and SCA-754 in mammalian cells. 72 h following SCA-744 and SCA-754-treatment, cell viability was assessed using a standard ATP method, CellTiter-Glo® Luminescent Cell Viability Assay.

Osteopontin (OPN) = test: 15N-1H HSQC NMR binding to osteopontin; settings: HS compared with SCA-744
Procedure: In order to verify the predicted heparan sulfate mimicking activity of SCA-744, its physical interaction was probed with a prototypical HS-binding protein Osteopontin (OPN), a component of the extracellular matrix (ECM). To this end, NMR spectroscopy was used to directly probe the interaction and map the location of the interaction site along the protein backbone. The experimental strategy was as follows: First, ^15N-labelled OPN was prepared following well-established molecular biology technology techniques. Individual residue positions are directly monitored via the so-called ^15N-^1H Heteronuclear Single-Quantum Coherence (HSQC) spectroscopy, where individual cross peaks in the two-dimensional (2D) frequency spectrum corresponds to individual residue positions (amino acids) of the protein. Ligand binding changes the chemical environment of residues located in the binding site and leads to a change in the HSQC spectrum. Since the signal assignment is available, the residue positions which are affected by ligand binding can easily be identified by comparing HSQC spectra of the apo (ligand-free) and ligand-bound state of the protein (FIG. 7A). […] It is very convenient to analyze the chemical shift changes (induced by ligand binding) as a function of residue positions (FIG. 7B,C). Residues that display the largest chemical shift changes are typically part of the binding interface. […] Therefore, it can be concluded that SCA-744 and HS share the same ligand interaction sites and therefore are in competition for binding.

Compound	MPP+ protection relative to SCA-744 (neuroblastoma cells; 0.2 μM versus 1 μM) [× times]	protection from MPP+ induced apoptosis / damage (neuroblastoma cells)	protection from MPP+ induced apoptosis / damage (neuroblastoma cells; listed as CAL-X)	concentration for MPP+ protection (neuroblastoma cells; 12 h following MPP+ treatment, CellTiter-Glo) [µM]	inhibition of LPS-induced TNF-α, IL-ß and IL-6 [1]	EC50 at 72 h [2] [mM]	binding sites on OPN (chemical shift changes by residue) (Osteopontin (OPN))
Cc1cc2c(O)c(c1)Cc1cc(S(=O)(=O)O)cc(c1O)Cc1cc(S(=O)(=O)O)cc(c1O)Cc1cc(S(=O)(=O)O)cc(c1O)C2 [SCA-754, Trisodium 25,26,27,28-tetrahydroxycalix(4)arene-23-methyl-5,11,17-trisulfonate]	5	protects against oxidative stress from MPP+ induced damage	protected neuroblastoma cells from MPP+ induced apoptosis	0.2	Dose-dependent inhibition	1	–
heparan sulfate [HS, reference compound]	–	–	–	–	–	–	overlapping binding sites
